Results as given in the supplement of paper PMC6045584.
± gives the standard deviation of the averaged measurements.

Key:
SOTRASTAURIN/AEB071 [1] = compound: T1, CN1CCN(c2nc(C3=C(c4c[nH]c5ccccc45)C(=O)NC3=O)c3ccccc3n2)CC1 [SOTRASTAURIN/AEB071]; assay: surviving fraction relative to DMSO-only wells; higher = less growth inhibition; details: exposure time: 5 days
Procedure, shortened: (§1)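 Log-phase tumour cell lines were seeded at 250–500 cells per well in 384-well plates. After 24 hours they were exposed continuously for five days to inhibitors at 0.5, 1, 5, 10, 50, 100, 500 and 1000 nM. Viability was read by CellTiter-Glo luminescence after 10 minutes at room temperature, and surviving fraction is luminescence normalised to the median of DMSO-only wells. Each line was screened three times and kept only if replicate Pearson r >0.7 and median Z' >0.3.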

DASATINIB = compound: Cc1nc(Nc2ncc(C(=O)Nc3c(C)cccc3Cl)s2)cc(N2CCN(CCO)CC2)n1 [DASATINIB]; assay: as above; details: exposure time: 5 days
Procedure, shortened: as §1

[2] = compound: CCn1c(C(=O)N(C2CC2)C2CC2)cc2c3c(ncn3C)c(Nc3cc(C)n(C)n3)nc21; assay: area under dose-response curve of surviving fraction (unscaled, Aref=0) (surviving fraction x log10(nM)); higher = more resistant; details: exposure time: 5 days; dose range 0.5-1000 nM
Procedure, shortened: (§2)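 Three screens per tumour cell line were run in 384-well plates at eight inhibitor concentrations from 0.5 to 1000 nM over five days. Surviving fractions, from CellTiter-Glo luminescence normalised to DMSO-only wells, were fitted with 3-parameter logistic curves in the drc R package. The reported area under the curve is the unscaled activity area. It spans log10 dose, and Aref is 0.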

SOTRASTAURIN/AEB071 [3] = compound: T1, SOTRASTAURIN/AEB071; assay: as above; details: exposure time: 5 days; dose range 0.5-1000 nM
Procedure, shortened: as §2

[4] = compound: CNCc1ccc(-c2[nH]c3cc(F)cc4c3c2CCNC4=O)cc1; assay: as above; details: exposure time: 5 days; dose range 0.5-1000 nM
Procedure, shortened: as §2

ABIRATERONE = compound: C[C@]12CC[C@H](O)CC1=CC[C@@H]1[C@@H]2CC[C@]2(C)C(c3cccnc3)=CC[C@@H]12 [ABIRATERONE]; assay: as above; details: exposure time: 5 days; dose range 0.5-1000 nM
Procedure, shortened: as §2

Test System | surviving fraction (SOTRASTAURIN/AEB071 [1]; 0.5 nM) | surviving fraction (SOTRASTAURIN/AEB071 [1]; 1 nM) | surviving fraction (SOTRASTAURIN/AEB071 [1]; 5 nM) | surviving fraction (SOTRASTAURIN/AEB071 [1]; 10 nM) | surviving fraction (SOTRASTAURIN/AEB071 [1]; 50 nM) | surviving fraction (SOTRASTAURIN/AEB071 [1]; 100 nM) | surviving fraction (SOTRASTAURIN/AEB071 [1]; 500 nM) | surviving fraction (SOTRASTAURIN/AEB071 [1]; 1000 nM) | surviving fraction (DASATINIB; 0.5 nM) | surviving fraction (DASATINIB; 1 nM) | surviving fraction (DASATINIB; 5 nM) | surviving fraction (DASATINIB; 10 nM) | surviving fraction (DASATINIB; 50 nM) | surviving fraction (DASATINIB; 100 nM) | surviving fraction (DASATINIB; 500 nM) | surviving fraction (DASATINIB; 1000 nM) | area under dose-response curve [2] | area under dose-response curve (SOTRASTAURIN/AEB071 [3]) | area under dose-response curve [4] | area under dose-response curve (ABIRATERONE)
SKBR3 BREAST | 1.12 ± 0.05 | 0.9717 ± 0.0031 | 1 ± 0.068 | 1.07 ± 0.15 | 0.782 ± 0.085 | 0.84 ± 0.11 | 0.818 ± 0.086 | 0.849 ± 0.12 | 0.718 ± 0.024 | 0.802 ± 0.1 | 0.722 ± 0.097 | 0.822 ± 0.063 | 1.01 ± 0.093 | 1.1 ± 0.086 | 1.13 ± 0.12 | 0.942 ± 0.022 | 3.41 | 3.01 | 2.69 | 3.53
SNU475 LIVER | 0.996 ± 0.06 | 1.04 ± 0.055 | 1.01 ± 0.042 | 1.03 ± 0.034 | 0.9037 ± 0.0085 | 0.873 ± 0.029 | 0.932 ± 0.04 | 0.908 ± 0.046 | 0.799 ± 0.0098 | 0.774 ± 0.018 | 0.602 ± 0.021 | 0.519 ± 0.036 | 0.469 ± 0.02 | 0.349 ± 0.021 | 0.242 ± 0.025 | 0.255 ± 0.032 | 3.18 | 3.15 | 3.13 | 3.42
SUM149 BREAST | 0.923 ± 0.17 | 0.901 ± 0.054 | 0.892 ± 0.11 | 0.896 ± 0.088 | 0.932 ± 0.1 | 0.851 ± 0.025 | 0.893 ± 0.062 | 0.882 ± 0.031 | 0.774 ± 0.058 | 0.817 ± 0.082 | 0.607 ± 0.043 | 0.563 ± 0.036 | 0.292 ± 0.018 | 0.252 ± 0.011 | 0.177 ± 0.02 | 0.174 ± 0.018 | 3.48 | 2.96 | 2.39 | 3.16
SYO1 SYNOVIAL | 1.02 ± 0.053 | 1.01 ± 0.058 | 1.04 ± 0.063 | 0.991 ± 0.068 | 0.869 ± 0.031 | 0.875 ± 0.021 | 0.891 ± 0.038 | 0.909 ± 0.038 | 0.777 ± 0.024 | 0.758 ± 0.041 | 0.651 ± 0.03 | 0.566 ± 0.07 | 0.415 ± 0.02 | 0.383 ± 0.026 | 0.351 ± 0.011 | 0.34 ± 0.017 | 3.06 | 3.01 | 2.25 | 3.32
T47D BREAST | 1.03 ± 0.05 | 1.042 ± 0.0044 | 0.988 ± 0.034 | 1.03 ± 0.038 | 1.03 ± 0.05 | 1.05 ± 0.014 | 1.1 ± 0.028 | 1.09 ± 0.022 | 0.937 ± 0.032 | 0.903 ± 0.043 | 0.903 ± 0.057 | 0.937 ± 0.042 | 1 ± 0.035 | 0.975 ± 0.042 | 0.964 ± 0.048 | 0.982 ± 0.061 | 3.36 | 3.44 | 3.24 | 3.62
U2OS BONE | 1.04 ± 0.058 | 1.008 ± 0.0065 | 1.11 ± 0.037 | 1.044 ± 0.0091 | 1.03 ± 0.051 | 1.02 ± 0.045 | 0.939 ± 0.027 | 0.929 ± 0.029 | 0.951 ± 0.031 | 0.953 ± 0.022 | 0.957 ± 0.059 | 0.865 ± 0.051 | 0.8 ± 0.035 | 0.692 ± 0.021 | 0.514 ± 0.024 | 0.503 ± 0.006 | 3.44 | 3.36 | 3.17 | 3.6
VCAP PROSTATE | 1.08 ± 0.18 | 1.01 ± 0.11 | 1.08 ± 0.06 | 1.03 ± 0.096 | 0.883 ± 0.1 | 1.1 ± 0.052 | 0.941 ± 0.085 | 0.931 ± 0.13 | 0.856 ± 0.048 | 0.89 ± 0.014 | 0.923 ± 0.026 | 0.943 ± 0.091 | 1.01 ± 0.12 | 1.02 ± 0.11 | 1.02 ± 0.061 | 0.932 ± 0.062 | 3.54 | 3.27 | 3.23 | 3.72
